Measured values published in PubChem BioAssay AID2305 (GlaxoSmithKline (GSK), 2010).

What follows are compounds tested on P. falciparum 3D7 growth, pLDH absorbance (assay: P. falciparum 3D7 growth inhibition, dose response, strain 3D7 (AID 2305)).

Point of comparison: `CCCN(CCCN(CCCN(CCC)C(C)C)c1cc(C)nc(Nc2ccc(Cl)cc2)n1)C(C)C`, IC50 110 nM. Against it:
- O=C(Cn1c(CCc2cccc(F)c2F)cc(=O)c2ccccc21)N(CCN1CCCCC1)Cc1ccc(-c2ccc(C(F)(F)F)cc2)cc1 — 6.9-fold higher, 760 nM
- O=C(NC1CCC(CCN2Cc3cccc(F)c3C2)CC1)c1cccc(-c2cccnc2)c1 (stereo unspecified) — 2.7-fold higher, 300 nM
- CC1CCCN(c2ccc(NC(=O)c3cccs3)cc2[N+](=O)[O-])C1 (stereo unspecified) — 6.1-fold higher, 670 nM
- COc1cc(Nc2nccc(Nc3ccc4c(C)[nH]nc4c3)n2)cc2ccccc12 — 6.4-fold higher, 700 nM
- CC(C)Nc1nc(NC2CCCCC2)nc(N2CCCCCCC2)n1 — 9.9-fold higher, 1090 nM
- CN1CCCN(Cc2cccc(-c3ccc(NC(=O)c4cccc(Cl)c4)cc3)c2)CC1 — 8.5-fold higher, 930 nM
- CCN1CCC(N(Cc2ccc(-c3ccc(Cl)cc3)cc2)C(=O)Cn2c(CCc3cccc(F)c3F)cc(=O)c3ccccc32)CC1 — 6.4-fold higher, 700 nM
- O=C(Cc1cnc[nH]1)Nc1cccc(-c2cccc(-c3nc4ccccc4[nH]3)c2)c1 — 9.3-fold higher, 1020 nM
- COc1cc(Cc2cnc(N)nc2N)cc(OCCCCCCN2C(=O)c3ccccc3C2=O)c1OC — 10-fold higher, 1100 nM
- CC(=O)Nc1ccc(CN2CCC(NC(=O)c3cc(-c4ccc(N(C)C)cc4)cs3)C2)cc1 (stereo unspecified) — 11-fold higher, 1170 nM
- O=C(Cn1c(CCc2cccc(F)c2F)nc(=O)c2cccnc21)N(Cc1ccc(-c2ccc(C(F)(F)F)cc2)cc1)C1CCN(C2CCSCC2)CC1 — 2.1-fold higher, 230 nM
- CC(C)COc1ccc(C(O)C(CN2CCCCC2)c2ccccc2)cc1 (stereo unspecified) — 8.4-fold higher, 920 nM
- Clc1cccc(Nc2ccc3c(N4CCCCC4)ncnc3n2)c1 — 5.3-fold higher, 580 nM
- COc1ccc2nccc(NC(=O)C3CCC(NCc4ccc5c(c4)NC(=O)CS5)CC3)c2c1 (stereo unspecified) — 5.4-fold higher, 590 nM
- COc1ccc(-c2ccc(NC(=O)c3cccc(C#N)c3)cc2)cc1CN1CCCC(C(N)=O)C1 (stereo unspecified) — 7.8-fold higher, 860 nM
- O=C(Nc1ccc(Cl)cc1)c1cccc(CN2CCCN(Cc3cccc(O)c3)CC2)c1 — 8.7-fold higher, 960 nM
- Cn1cc(-c2ccnc3[nH]c(-c4cccc(CNC5CCC(O)CC5)c4)cc23)cn1 (stereo unspecified) — 8.2-fold higher, 900 nM
- NCC1CCCN1Cc1cccc(-c2ccc(-c3nc4ccc(C(F)(F)F)cc4[nH]3)s2)c1 (stereo unspecified) — 6.8-fold higher, 750 nM
- NC(=O)c1cccc(-n2ccc3cc(CNC4Cc5ccccc5C4)ccc32)c1 — 10-fold higher, 1130 nM
- CN(C)CCCN1C(=O)c2[nH]nc(-c3ccc(Cl)cc3O)c2C1c1ccc(Cl)cc1 (stereo unspecified) — 6.9-fold higher, 760 nM
- CCC(C)NC(=O)CN1CN(c2ccccc2)C2(CCN(C(=O)c3ccc(-c4ccccc4)cc3)CC2)C1=O (stereo unspecified) — within 1.5-fold, 130 nM
- COc1cccc2c(NN=Cc3ccccc3Cl)cc(C)nc12 — 1.9-fold higher, 210 nM
- CCCCc1ccc(C(=O)NC2CCN(C[C@H](O)c3ccnc4ccc(OC)cc34)CC2)cc1 — 6.6-fold higher, 730 nM
- CC1(CCc2ccccc2)N=C(Nc2ccc(Cl)cc2)N=C(N)C1c1ccc(Cl)c(Cl)c1 (stereo unspecified) — 2-fold higher, 220 nM
- Cc1ccc(S(=O)(=O)n2nccc2-c2c(-c3ccc(Cl)cc3)noc2C)cc1 — 7.4-fold higher, 810 nM
- O=S(=O)(c1ccccc1C(F)(F)F)C1C[C@H]2CC[C@@H](C1)N2S(=O)(=O)c1ccc(Cl)c(C(F)(F)F)c1 (stereo partly specified) — 6.5-fold higher, 710 nM
- O=C(c1cccs1)N(Cc1cccc(-c2ccc(CNCCc3ccccc3)cc2)c1)C1CCN(Cc2ccccc2)CC1 — 7.8-fold higher, 860 nM
- Cc1nnsc1C(=O)Nc1ccc(-c2ccc(-c3nc4c(C)cccc4[nH]3)s2)cc1 — 5.4-fold higher, 590 nM
- Fc1ccc2nc(-c3ccc(-c4ccc(CN5CCCCC5)cc4)cc3)[nH]c2c1 — 3.2-fold higher, 350 nM
- COC(=O)c1cc(OC)c(OC)cc1NC(=O)NC12CC3CC(CC(C3)C1)C2 — 8-fold higher, 880 nM
- NC(=NCC1CC1c1ccccc1)c1cccc(C(N)=NCC2CC2c2ccccc2)n1 (stereo unspecified) — 16-fold higher, 1760 nM
- CN(C)Cc1cccc(-c2cnc(N)c(-c3nc4ccc(S(C)(=O)=O)cc4[nH]3)c2)c1 — 8.1-fold higher, 890 nM
- Cc1ccc(-n2c(=O)c3cccnc3n2CC(=O)Nc2cccc(C)c2C)cc1 — 7.8-fold higher, 860 nM
- Cc1cccc2[nH]c(-c3cccc(-c4cccc(NC(=O)Nc5cccc(C#N)c5)c4)c3)nc12 — within 1.5-fold, 100 nM
- CC(C)N1CCC(N(Cc2ccc(-c3ccc(C(F)(F)F)cc3)cc2)C(=O)CCCn2c(CCc3cccc(F)c3F)nc(=O)c3ccccc32)CC1 — 8.8-fold higher, 970 nM
- NC1=NC(c2ccccc2)N(c2ccccc2)C(N)=N1 (stereo unspecified) — 2.6-fold higher, 290 nM
- CCc1ccnc2c(N3CCCC3=O)cc(C(=O)N[C@@H](Cc3ccccc3)[C@H](O)CNC3CCOCC3)cc12 — 3.5-fold higher, 380 nM
- CN(CCC(CCN1CCC(c2c[nH]c3ccccc23)CC1)c1ccccc1)C(=O)Nc1ccc(Cl)c(Cl)c1 (stereo unspecified) — 11-fold higher, 1190 nM
- CC(C)N1CCC(NCc2ccc(-c3ccc(Cl)cc3)cc2)CC1 — 5.9-fold higher, 650 nM
- COc1ccc(C2CC(=O)C3=C(C2)NC(C)=C(C(=O)OC(C)C)C3c2cccc(O)c2)cc1OC (stereo unspecified) — 7.1-fold higher, 780 nM
- CCCCCCOc1ccc2ccccc2c1CNCCCCCCNCc1c(OCCCCCC)ccc2ccccc12 — 9.6-fold higher, 1060 nM
- Cn1cnc(CCNC(=O)c2ccc(-c3ccc(-c4nc5ccc(C(F)(F)F)cc5[nH]4)s3)cc2)c1 — 3.6-fold higher, 400 nM
- COc1ccccc1C1CN(CCNC(=O)c2ncc(C)[nH]2)Cc2ccccc2O1 (stereo unspecified) — 7.3-fold higher, 800 nM
- Cc1ccc2c(=O)c3cc(C)ccc3[nH]c2c1 — 3.8-fold higher, 420 nM
- COc1cc2nc(NCCc3ccccc3)nc(NCCCc3ccccc3)c2cc1OC — within 1.5-fold, 160 nM
- Fc1ccc(-c2cncc(-c3ccc(F)cc3)n2)cc1 — 5.8-fold higher, 640 nM
- OC(CNC1CCCCC1)Cn1c2ccccc2c2ccccc21 (stereo unspecified) — 9-fold higher, 990 nM
- COc1ccc(Nc2ncc3c(-c4cccc(NC(=O)c5ccccc5)c4)c[nH]c3n2)cc1OC — 4.2-fold higher, 460 nM
- C=CCOC(=O)N1CCC(CNCc2cccc(-c3cccc(-c4nc5c(C)cccc5[nH]4)c3)c2)C1 (stereo unspecified) — the same, 110 nM
- COc1cccc(C2(NC[C@@H](O)[C@H](Cc3ccccc3)NC(=O)c3ccccc3)CCCCC2)c1 — 6.6-fold higher, 730 nM
- CCCCCCCCNCCCSCCCNCCCCCCCC — 11-fold higher, 1230 nM
- Cc1nc(N)nc(N)c1C#CC1CCCC1 — 7-fold higher, 770 nM
- O=C(c1ccccc1)N(Cc1ccccc1-c1ccc(CNCCc2ccccc2)cc1)C1CCN(Cc2ccccc2)CC1 — 9-fold higher, 990 nM
- CCc1ccc(NC(=O)N(CCCN2CCN(C)CC2)Cc2csc(-c3ccc(CNCc4ccccc4)cc3)n2)cc1 — 9.2-fold higher, 1010 nM
- CCN(CC)CCN(Cc1ccc(-c2ccc(C(F)(F)F)cc2)cc1)C(=O)Cn1cc(Cc2cnn(C)c2)c(=O)nc1/C=C/c1cccc(F)c1F — 8.7-fold higher, 960 nM
- CN(C)CCOc1cc(NC(=O)Nc2ccc(-c3ccccc3)cc2)ccc1I — 5.5-fold higher, 600 nM
- Oc1ccc(CCNCCCCCCNCCc2ccc(Br)cc2)cc1O — 9.3-fold higher, 1020 nM
- COc1ccc(-c2csc3nc(C)nc(Cl)c23)cc1OC — 3.3-fold higher, 360 nM
- CN1CCN(c2ccnc3ccc(NC(=O)Cc4ccc(OCc5ccccc5)cc4)cc23)CC1 — 5.7-fold higher, 630 nM
- Cc1cc2[nH]c(-c3ccc(C(=O)NCCCN4CCN(c5cccc(Cl)c5)CC4)cc3)nc2cc1Cl — 7-fold higher, 770 nM
- COc1cccc(O)c1CN1CCC2(CCCN(Cc3ccc(F)cc3)C2)C1 (stereo unspecified) — 7.9-fold higher, 870 nM
- Fc1ccc2nc(-c3ccc(-c4ccc(CN5CCN(c6ccncc6)CC5)cc4)cc3)[nH]c2c1 — 2.3-fold higher, 250 nM
- O=C(Nc1ccc2c(c1)CN(Cc1ccc(N3CCCC3)o1)CCC2)c1ccoc1 — 8.6-fold higher, 950 nM
- COc1ccc(CSC2CCCCC23NC(=S)NC3=S)cc1 (stereo unspecified) — 7.7-fold higher, 850 nM
- CC(C)S(=O)(=O)N1CCN(Cc2ccc3c(c2)nc(NC(=O)c2ccsc2)n3C[C@H](O)c2ccccc2)CC1 — 2.5-fold higher, 270 nM
- Cn1cncc1C(=O)Nc1cccc(-c2ccc(-c3nc4ccccc4[nH]3)cc2)c1 — 7.7-fold higher, 850 nM
- Cc1[nH]c(C)c(-c2ccc(Nc3ccc(C(F)(F)F)cn3)cc2)c(=O)c1Br — 3.7-fold lower, 30 nM
- CN1CCCN(c2ccnc3cc4c(cc23)N(C(=O)c2ccc(Cl)cc2Cl)CC4)CC1 — 7.4-fold higher, 810 nM
- Fc1ccc(C=NNc2ccnc3ccccc23)cc1 — 6.5-fold higher, 710 nM
- COc1ccc2nccc(N3CCCN(CCNS(=O)(=O)c4ccc5c(c4)NC(=O)CS5)CC3)c2n1 — 7.5-fold higher, 820 nM
- C=C[C@]1(C)C[C@@H](OC(=O)NC(=O)CCCS(=O)(=O)c2nnc(C)s2)[C@]2(C)[C@H](C)CC[C@]3(CCC(=O)[C@H]32)[C@@H](C)[C@@H]1O — 3.7-fold lower, 30 nM
- COc1cc2c(c(Cl)c1OC)CCN(Cc1ccccc1)CC2c1ccc(NC(=O)C(F)(F)F)cc1 (stereo unspecified) — 8.4-fold higher, 920 nM
- OCC1CCN(Cc2ccc(-c3ccc(-c4nc5ccc(C(F)(F)F)cc5[nH]4)cc3)cc2)CC1 — 6.4-fold higher, 700 nM
- Cc1cnc(CNCc2ccc(S(=O)(=O)Nc3ccc(Oc4cccc(Cl)c4)cc3)cc2)cn1 — 7-fold higher, 770 nM
- CNC(=O)Cc1ccc(C(=O)Nc2cccc(-c3cccc(-c4nc5ccc(C(F)(F)F)cc5[nH]4)c3)c2)cc1 — 4-fold higher, 440 nM
- O=c1cc(NCCCNC2CCCc3c2cc(Cl)c(Cl)c3Cl)[nH]c2ccccc12 (stereo unspecified) — 2.5-fold higher, 280 nM
- COc1ccc(Nc2nccc(N3CCC(NC(=O)Nc4cccc(C(C)=O)c4)C3)n2)cc1 (stereo unspecified) — 7.5-fold higher, 820 nM
- COc1cc(C=Cc2ccc3ccccc3n2)cc(Br)c1OCC(=O)N(C)C — 10-fold higher, 1100 nM
- C[C@H](NC(=O)c1c(CN2CCC(NC(=O)CC(C)(C)C)CC2)c(-c2cccs2)nc2ccccc12)C1CCCCC1 — 8.6-fold higher, 950 nM
- Cc1ccc(CN2CCN(Cc3cccc(NC(=O)c4cccs4)c3)CC2)cc1C — 9.4-fold higher, 1030 nM
- Cc1cc(-c2ccc(NC(=O)Nc3ccc4nccc(N5CCN(C)CC5)c4c3)cc2C)cc(C)n1 — within 1.5-fold, 150 nM
- CN1CCC(C(=O)Nc2ccc(-c3cccc(-c4nc5ccc(F)cc5[nH]4)c3)cc2)CC1 — 7.2-fold higher, 790 nM
- Cc1cccc(C(=O)Nc2ccnc(N(C)CCCN(C)Cc3cccc(C#N)c3)c2)c1 — 12-fold higher, 1320 nM
- Fc1ccccc1CNc1ncc(-c2ccsc2)c(-c2nccs2)n1 — 2.2-fold lower, 50 nM
- Cc1cccc2[nH]c(-c3cccc(-c4cccc(NC(=O)C(C)CN(C)C)c4)c3)nc12 (stereo unspecified) — 3.7-fold higher, 410 nM
- CCCCCN1CCCC1CNS(=O)(=O)c1cccc(C(=O)Nc2cccc(C#N)c2)c1 (stereo unspecified) — 8.9-fold higher, 980 nM
- CN1CCC(c2c[nH]c3ccc(NC(=O)Nc4ccc(-c5ccncc5)c(Cl)c4Cl)cc23)CC1 — 6.4-fold higher, 700 nM
- Cc1nc2ccc3nc(NC(=O)c4ccno4)sc3c2s1 — 6-fold higher, 660 nM
- COc1ccc2ncc(F)c([C@@H](O)CN3CCC(NCc4cc(C#N)c5c(c4)CCO5)CC3)c2n1 — 8.1-fold higher, 890 nM
- CN(C)c1cccc(NC(=O)NC2N=C(c3ccccc3)c3ccccc3N(CC(=O)N(C)c3ccccc3)C2=O)c1 (stereo unspecified) — 8.6-fold higher, 950 nM
- O=S(=O)(c1ccc(NC(=S)NN=Cc2ccccn2)cc1)N1CCCCC1 — 6.5-fold higher, 720 nM
- Cc1ccc(C2=NNC3(S2)C(=O)N(C)c2ccccc23)cc1 (stereo unspecified) — 9.3-fold higher, 1020 nM
- CCCCCC(C)c1cc(O)c2c(c1)OC(C)(C)C=C2C1=CCN(Cc2ccccc2)CC1 (stereo unspecified) — 7.1-fold higher, 780 nM
- O=C(Cn1cc(C=C2SC(=NC3CCCC3)N(C3CCCC3)C2=O)c2ccccc21)N1CCCC1 — 2.7-fold higher, 300 nM
- Cc1[nH]c(C)c(-c2ccc(CCc3cccc(C(F)(F)F)c3)nc2)c(=O)c1Cl — within 1.5-fold, 100 nM
